Laboratory results from ChEMBL document CHEMBL3217435, “Unfolded and macrocyclic ammonium derivatives of diterpenoids steviol and isosteviol having choline moieties. Synthesis and inhibitory activities toward acetylcholine- and butyrylcholinesterases” (Medchemcomm, 2012).

Legend:
Acetylcholinesterase = Acetylcholinesterase (Homo sapiens, UniProt P22303); assay: Inhibition of human erythrocyte AChE using acetylthiocholine iodide as substrate by visible spectrophotometry
Cholinesterase = Cholinesterase (Homo sapiens, UniProt P06276); assay: Inhibition of human serum BChE using butyrylthiocholine iodide as substrate by visible spectrophotometry
Sequence of Cholinesterase (P06276 whole entry): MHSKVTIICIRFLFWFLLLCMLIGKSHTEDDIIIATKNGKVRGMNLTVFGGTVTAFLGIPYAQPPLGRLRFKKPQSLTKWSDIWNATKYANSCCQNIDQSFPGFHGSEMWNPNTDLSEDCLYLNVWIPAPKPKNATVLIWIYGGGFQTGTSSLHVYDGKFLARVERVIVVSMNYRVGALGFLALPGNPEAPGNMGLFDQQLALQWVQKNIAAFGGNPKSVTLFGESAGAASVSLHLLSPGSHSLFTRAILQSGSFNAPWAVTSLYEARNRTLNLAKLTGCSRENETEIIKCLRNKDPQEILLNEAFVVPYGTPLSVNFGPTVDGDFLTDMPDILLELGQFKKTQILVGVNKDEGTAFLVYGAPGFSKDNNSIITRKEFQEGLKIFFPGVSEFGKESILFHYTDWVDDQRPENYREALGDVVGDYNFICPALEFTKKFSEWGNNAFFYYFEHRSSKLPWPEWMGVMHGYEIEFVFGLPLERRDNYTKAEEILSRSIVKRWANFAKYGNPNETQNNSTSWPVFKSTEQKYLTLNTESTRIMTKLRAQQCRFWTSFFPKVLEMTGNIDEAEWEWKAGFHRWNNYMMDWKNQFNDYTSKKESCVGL

Sequence of Acetylcholinesterase (P22303 whole entry): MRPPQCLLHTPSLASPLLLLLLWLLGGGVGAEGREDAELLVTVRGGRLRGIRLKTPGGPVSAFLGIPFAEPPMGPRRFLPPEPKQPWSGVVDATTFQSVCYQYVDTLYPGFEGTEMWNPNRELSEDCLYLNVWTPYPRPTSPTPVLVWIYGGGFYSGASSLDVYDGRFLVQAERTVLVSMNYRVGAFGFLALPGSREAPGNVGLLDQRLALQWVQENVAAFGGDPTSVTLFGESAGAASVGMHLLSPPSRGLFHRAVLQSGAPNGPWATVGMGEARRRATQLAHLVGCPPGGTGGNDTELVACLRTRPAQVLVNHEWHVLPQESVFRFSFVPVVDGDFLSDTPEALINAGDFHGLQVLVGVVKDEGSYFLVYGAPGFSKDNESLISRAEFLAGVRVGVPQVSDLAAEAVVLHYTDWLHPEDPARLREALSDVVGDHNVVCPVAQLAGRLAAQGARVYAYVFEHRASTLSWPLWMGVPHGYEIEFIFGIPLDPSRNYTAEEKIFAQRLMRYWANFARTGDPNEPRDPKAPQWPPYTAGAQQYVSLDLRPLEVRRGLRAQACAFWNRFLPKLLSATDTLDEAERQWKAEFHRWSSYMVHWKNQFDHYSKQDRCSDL

| Compound | IC50 (Acetylcholinesterase) | IC50 (Cholinesterase) |
| --- | --- | --- |
| C[C@@]12CC[C@@H]3[C@@](CC[C@H]4[C@@]3(C)CCC[C@@]4(C)C(=O)OCC[N+](C)(C)C)(CC1=O)C2 | 150 µM | 30 µM |
| C[C@@]12CC[C@@H]3[C@@](CC[C@H]4[C@@]3(C)CCC[C@@]4(C)C(=O)OCC[N+](C)(C)Cc3ccccc3)(CC1=O)C2 | 30 µM | 6.7 µM |
| C[C@@]12CC[C@@H]3[C@@](CC[C@H]4[C@@]3(C)CCC[C@@]4(C)C(=O)OCC[N+](C)(C)CCCCCCCCCC[N+](C)(C)CCOC(=O)[C@]3(C)CCC[C@@]4(C)[C@@H]5CC[C@@]6(C)C[C@]5(CC[C@@H]43)CC6=O)(CC1=O)C2 | 88 µM | 65 µM |
| C[C@@]12CC[C@@H]3[C@@](CC[C@H]4[C@@]3(C)CCC[C@@]4(C)C(=O)OCC[N+](C)(C)CCCCCCCCCCCC[N+](C)(C)CCOC(=O)[C@]3(C)CCC[C@@]4(C)[C@@H]5CC[C@@]6(C)C[C@]5(CC[C@@H]43)CC6=O)(CC1=O)C2 | 2.2 µM | 10 µM |
| C[C@@]12CC[C@@H]3[C@]4(CC[C@H]5[C@@]3(C)CCC[C@@]5(C)C(=O)OCC[N+](C)(C)CCCCCCCCC[N+](C)(C)CCOC(=O)[C@]3(C)CCC[C@@]5(C)[C@@H]6CC[C@@]7(C)C[C@]6(CC[C@@H]53)C[C@H]7OC(=O)CCCCCCCCC(=O)O[C@@H]1C4)C2 | 5 µM | 60 µM |
| CC[N+](CC)(CC)CCOCCOCCOC(=O)[C@]1(C)CCC[C@@]2(C)[C@@H]3CC[C@@]4(C)C[C@]3(CC[C@@H]21)CC4=O | 80 µM | > 1000 µM |
| C[C@H]1C[C@@]23CC[C@H]4[C@@](C)(CCC[C@@]4(C)C(=O)OCC[N+](C)(C)C)[C@@H]2CC[C@]1(Cl)C3 | 34 µM | 4.2 µM |
| C[C@H]1C[C@@]23CC[C@H]4[C@@](C)(CCC[C@@]4(C)C(=O)OCC[N+](C)(C)Cc4ccccc4)[C@@H]2CC[C@]1(Cl)C3 | 9 µM | 1.6 µM |
